Results on 3 compounds are retold here after patent publication EP0683787B1, “4'-O-SULFONYL-ANTHRACYCLINE DERIVATIVES” (PHARMACIA & UPJOHN S.p.A., priority 1993, dated 1995).

In brackets after ≈: the same amount, converted by molar mass.

Assay [1] concerns P388 murine leukaemia resistant to doxorubicin. The assay is described as follows: Antitumor activity in vivo on P388/DX leukaemia. On the set-up: species or system BD2F1 mice. Conditions: for T/C: Median survival time of treated mice/Median survival time of controls x 100, at Optimal Dose, i.v. one day after tumor transplantation; for O.D. (Optimal Dose): injected i.v. one day after tumor transplantation, 10^5 cell/mouse transplanted i.v.

Assay [2] has as its system LoVo/DX (colon adenocarcinoma resistant to doxorubicin). The assay is described as follows: Colony assay, cytotoxic activity on LoVo/DX cells. The class given is cell-based, human. The conditions noted are these: for R.I. (Resistance Index): (IC50 Lovo/DX)/(IC50 LoVo); for IC50: Homo sapiens, LoVo/DX, Colony assay: 4 h treatment, concentration inhibiting 50% colony formation. The source says: (§1) The cytotoxic activity is reported as IC50, the concentration inhibiting 50% of colony formation, calculated on concentration response curves. Resistance index R.I. is the ratio between the IC50 on resistant cells and the IC50 on sensitive cells.

In assay [3] the test system is LoVo (colon adenocarcinoma). The assay is described as follows: Colony assay, cytotoxic activity on LoVo cells. The class given is cell-based. Conditions: Homo sapiens, Colony assay: 4 h treatment, concentration inhibiting 50% colony formation.
Source text: as §1

In general, T/C refers to the ratio of treated to control. As a reminder, the IC50 is the concentration at which inhibition is half-maximal. Low values mean higher potency, high ones lower potency. For the compound `CC(=O)[C@]1(O)Cc2c(O)c3c(c(O)c2[C@@H](O[C@H]2C[C@H](N)[C@H](OS(C)(=O)=O)[C@H](C)O2)C1)C(=O)c1ccccc1C3=O` [Compound 1b, 4-demethoxy-4'-O-methansulfonyldaunorubicin], in assay [1], the T/C was 133% and the “O.D. (Optimal Dose)” value was 8.1 mg/kg. Besides, in assay [2], the “R.I. (Resistance Index)” value was 5.8 and half-maximal inhibition (IC50) was put at 0.0605 µg/mL (≈ 0.105 µM). The compound also showed a half-inhibitory concentration (IC50) in assay [3] of 0.0105 µg/mL (≈ 0.0182 µM).
For `COc1cccc2c1C(=O)c1c(O)c3c(c(O)c1C2=O)C[C@@](O)(C(=O)CO)C[C@@H]3O[C@H]1C[C@H](N)[C@H](OS(C)(=O)=O)[C@H](C)O1` [Compound 2a, 4'-O-methansulfonyldoxorubicin] the same measures were 137%, 40.0 mg/kg, 104.0, 1.8 µg/mL (≈ 2.9 µM) and 0.0173 µg/mL (≈ 0.0278 µM).
Consider `COc1cccc2c1C(=O)c1c(O)c3c(c(O)c1C2=O)C[C@@](O)(C(=O)CO)C[C@@H]3O[C@H]1C[C@H](N)[C@H](O)[C@H](C)O1` [doxorubicin, reference compound], for which, in assay [1], the “O.D. (Optimal Dose)” value was 16.9 mg/kg. Besides, the IC50 was determined as 2.55 µg/mL (≈ 4.7 µM) in assay [2] and 0.049 µg/mL (≈ 0.0902 µM) in assay [3].
